This assay deals with mitochondrial complex I (Rattus norvegicus, UniProt A6K8N6+P03889+Q641Y2). As to the kind of experiment: NADH oxidation at […] nm, NADH:ubiquinone-1 activity of solubilized mitochondria. Type of assay: biochemical. The following applies: read-out: % inhibition at 25 mM.

Structures are written as SMILES.

The inhibition is the change of the read-out against control, counted positive when it falls. As to `CN(C)C(=N)NC(=N)N` [metformin], the inhibition at 25000 µM worked out at 12.1%.

The record behind these values is PMC4440585 (Biochemistry, 2015).
